Laboratory results taken from ChEMBL document CHEMBL1201862, “PubChem BioAssay data set” (2004).
Values belong to the molecule of their own block, whether it stands above or below them. Calls of active or inactive are those of the source.

What was measured:
[1] = biological target: T1, Alkaline phosphatase, tissue-nonspecific isozyme (Homo sapiens, UniProt P05186)
T1 sequence (P05186 whole entry): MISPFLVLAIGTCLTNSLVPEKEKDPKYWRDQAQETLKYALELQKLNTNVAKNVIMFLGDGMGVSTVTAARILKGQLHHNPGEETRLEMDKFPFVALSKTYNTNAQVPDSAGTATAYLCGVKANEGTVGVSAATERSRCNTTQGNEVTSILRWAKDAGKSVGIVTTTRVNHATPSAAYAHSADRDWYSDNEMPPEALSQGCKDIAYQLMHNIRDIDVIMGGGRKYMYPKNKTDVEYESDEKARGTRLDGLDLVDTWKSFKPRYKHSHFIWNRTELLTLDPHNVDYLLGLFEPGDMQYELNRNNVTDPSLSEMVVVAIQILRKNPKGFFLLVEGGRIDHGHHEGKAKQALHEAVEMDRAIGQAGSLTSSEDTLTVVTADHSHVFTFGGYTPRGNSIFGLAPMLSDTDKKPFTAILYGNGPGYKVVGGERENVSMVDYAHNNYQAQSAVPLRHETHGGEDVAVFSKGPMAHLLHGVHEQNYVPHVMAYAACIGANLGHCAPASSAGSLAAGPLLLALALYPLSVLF

[2] = biological target: Intestinal-type alkaline phosphatase (Mus musculus, UniProt P24822); test: PubChem AID 488874; type: functional
[3] = biological target: T2, Intestinal-type alkaline phosphatase (Homo sapiens, UniProt P09923); test: human intestinal alkaline phosphatase activators, dose response, biochemical, luminescence, uHTS hits (AID 463120); type: functional
[4] = biological target: T2, Intestinal-type alkaline phosphatase; test: activation of human intestinal alkaline phosphatase – biochemical, luminescent, uHTS hits, set 2, dose response (AID 488817); type: functional;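 also: potency of activators that raise enzyme activity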
[5] = biological target: T1, Alkaline phosphatase, tissue-nonspecific isozyme; test: activation of tissue-nonspecific alkaline phosphatase – biochemical, TNAP isozyme, human IAP uHTS hits, selectivity assay for human IAP activator project, dose response (AID 488886); type: functional;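 also: potency of compounds raising TNAP activity as a selectivity check on IAP activators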
[6] = biological target: Hexokinase (Trypanosoma brucei, UniProt Q38C41); test: Confirmation assay for inhibitors of Trypanosoma brucei hexokinase 1-Analogue-first series. [Related pubchem assays (depositor defined):AID1430, AID1632, AID2516, AID2560, AID2579, AID2600, AID449725, AID492951]; type: functional
[7] = biological target: Glucose-6-phosphate 1-dehydrogenase (Homo sapiens, UniProt P11413); test: inhibition of Homo sapiens G6PD, dose series – biochemical, fluorescence, selectivity assay for P. falciparum G6PD inhibitor project, dose response (AID 504792); type: functional
[8] = biological target: T3, Rac GTPase-activating protein 1 (Homo sapiens, UniProt Q9H0H5); test: blockers of MgcRacGAP-driven Rac1 GTP hydrolysis – biochemical, ADP Hunter fluorescence, primary and confirmatory, confirmation (AID 624330); type: functional
T3 sequence (Q9H0H5 whole entry): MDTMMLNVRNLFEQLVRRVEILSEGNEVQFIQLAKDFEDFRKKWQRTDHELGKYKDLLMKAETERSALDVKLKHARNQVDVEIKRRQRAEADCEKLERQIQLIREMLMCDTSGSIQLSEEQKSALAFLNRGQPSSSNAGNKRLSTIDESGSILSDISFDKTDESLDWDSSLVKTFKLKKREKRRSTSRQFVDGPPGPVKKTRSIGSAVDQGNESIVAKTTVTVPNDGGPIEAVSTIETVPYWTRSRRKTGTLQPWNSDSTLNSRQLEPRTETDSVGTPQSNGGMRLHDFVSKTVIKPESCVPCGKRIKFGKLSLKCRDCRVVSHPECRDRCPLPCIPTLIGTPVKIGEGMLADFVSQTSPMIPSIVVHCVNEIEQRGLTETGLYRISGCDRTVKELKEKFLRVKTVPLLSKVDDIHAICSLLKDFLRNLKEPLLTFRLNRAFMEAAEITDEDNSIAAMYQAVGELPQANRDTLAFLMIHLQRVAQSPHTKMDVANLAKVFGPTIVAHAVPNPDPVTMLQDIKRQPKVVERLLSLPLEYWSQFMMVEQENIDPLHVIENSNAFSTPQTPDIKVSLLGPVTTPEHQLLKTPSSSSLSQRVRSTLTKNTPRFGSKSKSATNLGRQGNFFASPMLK

[9] = system: Saccharomyces cerevisiae; test: S. cerevisiae Caspase-1/ASC signal blockers IC50, NALP1 inhibitor project selectivity test (AID 488863); type: functional, organism-based
[10] = biological target: NACHT, LRR and PYD domains-containing protein 1 (Homo sapiens, UniProt Q9C000); test: NALP1 inhibitors in yeast, dose response, luminescent (AID 488860); type: functional
[11] = biological target: T4, Corticotropin-releasing factor receptor 2/Corticotropin-releasing factor-binding protein (Homo sapiens, UniProt P24387+Q13324); test: activators of CRF receptor 2 with binding protein – uHTS hits, confirmation (AID 602473); type: functional; conditions: read-out: EC50_Mean
T4 sequence (Q13324 whole entry): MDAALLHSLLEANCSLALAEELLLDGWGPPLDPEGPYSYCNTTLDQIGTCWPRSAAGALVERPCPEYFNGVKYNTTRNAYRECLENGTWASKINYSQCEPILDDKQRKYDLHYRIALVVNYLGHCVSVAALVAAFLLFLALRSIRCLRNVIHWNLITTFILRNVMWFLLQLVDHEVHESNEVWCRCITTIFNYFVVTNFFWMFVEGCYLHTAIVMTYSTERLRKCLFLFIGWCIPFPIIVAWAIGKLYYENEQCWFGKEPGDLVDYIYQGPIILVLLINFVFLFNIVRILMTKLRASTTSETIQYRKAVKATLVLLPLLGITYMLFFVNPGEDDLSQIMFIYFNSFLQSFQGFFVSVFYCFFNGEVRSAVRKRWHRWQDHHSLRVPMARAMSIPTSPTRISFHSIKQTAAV
T4 sequence (P24387 whole entry): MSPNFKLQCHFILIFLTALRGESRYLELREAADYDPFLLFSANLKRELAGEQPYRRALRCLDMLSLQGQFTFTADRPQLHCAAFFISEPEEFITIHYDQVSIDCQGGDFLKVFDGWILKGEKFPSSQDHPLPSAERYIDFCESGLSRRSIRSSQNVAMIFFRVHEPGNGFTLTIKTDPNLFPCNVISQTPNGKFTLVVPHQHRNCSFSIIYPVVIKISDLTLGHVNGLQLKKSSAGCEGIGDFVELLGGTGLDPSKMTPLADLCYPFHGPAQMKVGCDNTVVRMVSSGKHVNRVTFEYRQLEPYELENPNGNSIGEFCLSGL

[12] = biological target: T5, Tyrosine-protein phosphatase non-receptor type 7 (Homo sapiens, UniProt P35236); test: SAR analysis of chemical inhibitors of HePTP using a Fluorescent assay - Set 2. [Related pubchem assays (depositor defined):AID1059, AID1077, AID1661, AID2085, AID521]; type: functional
T5 sequence (P35236 whole entry): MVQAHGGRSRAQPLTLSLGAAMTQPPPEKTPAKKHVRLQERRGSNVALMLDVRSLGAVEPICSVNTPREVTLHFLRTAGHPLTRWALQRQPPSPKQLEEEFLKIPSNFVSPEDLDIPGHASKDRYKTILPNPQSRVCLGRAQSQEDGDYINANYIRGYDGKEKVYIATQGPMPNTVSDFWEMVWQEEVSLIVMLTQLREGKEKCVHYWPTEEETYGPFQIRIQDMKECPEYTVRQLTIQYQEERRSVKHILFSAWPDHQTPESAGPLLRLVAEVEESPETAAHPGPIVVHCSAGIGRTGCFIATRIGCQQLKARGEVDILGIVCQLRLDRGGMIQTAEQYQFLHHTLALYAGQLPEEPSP

[13] = biological target: Dual specificity protein phosphatase 3 (Homo sapiens, UniProt P51452); test: SAR VHR1 Fluorescent Assay for In Vitro dose response studies Set 2. [Related pubchem assays (depositor defined):AID1654, AID1661, AID1878]; type: functional
[14] = biological target: G-protein coupled receptor 55 (Homo sapiens, UniProt Q9Y2T6); test: selective activators of receptor GPR55 – imaging, U2OS cells, beta-arrestin-GFP redistribution, primary screen (AID 1961); type: functional
Chain of G-protein coupled receptor 55 (Q9Y2T6 whole entry): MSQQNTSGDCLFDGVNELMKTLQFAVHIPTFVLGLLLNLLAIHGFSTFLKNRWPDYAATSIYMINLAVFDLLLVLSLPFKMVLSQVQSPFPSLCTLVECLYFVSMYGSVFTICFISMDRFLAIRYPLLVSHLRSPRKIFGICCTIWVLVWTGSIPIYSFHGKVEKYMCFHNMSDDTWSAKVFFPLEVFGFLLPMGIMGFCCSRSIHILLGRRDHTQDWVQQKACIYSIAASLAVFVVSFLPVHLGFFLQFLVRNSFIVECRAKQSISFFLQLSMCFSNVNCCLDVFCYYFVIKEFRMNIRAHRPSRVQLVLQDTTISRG

T2 sequence (P09923 whole entry): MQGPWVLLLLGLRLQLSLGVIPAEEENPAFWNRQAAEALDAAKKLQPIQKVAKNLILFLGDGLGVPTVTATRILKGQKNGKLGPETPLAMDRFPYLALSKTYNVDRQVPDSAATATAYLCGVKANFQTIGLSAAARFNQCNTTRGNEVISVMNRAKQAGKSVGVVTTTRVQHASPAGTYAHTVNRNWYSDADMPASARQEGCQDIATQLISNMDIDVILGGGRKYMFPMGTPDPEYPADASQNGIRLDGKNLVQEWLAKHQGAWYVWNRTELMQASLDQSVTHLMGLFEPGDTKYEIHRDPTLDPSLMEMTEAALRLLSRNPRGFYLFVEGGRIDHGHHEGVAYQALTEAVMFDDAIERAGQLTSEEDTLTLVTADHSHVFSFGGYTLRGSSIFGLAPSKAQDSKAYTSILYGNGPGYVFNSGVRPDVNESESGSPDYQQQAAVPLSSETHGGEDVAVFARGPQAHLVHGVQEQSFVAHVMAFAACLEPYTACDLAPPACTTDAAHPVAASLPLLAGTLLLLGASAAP
Chain of Glucose-6-phosphate 1-dehydrogenase (P11413 whole entry): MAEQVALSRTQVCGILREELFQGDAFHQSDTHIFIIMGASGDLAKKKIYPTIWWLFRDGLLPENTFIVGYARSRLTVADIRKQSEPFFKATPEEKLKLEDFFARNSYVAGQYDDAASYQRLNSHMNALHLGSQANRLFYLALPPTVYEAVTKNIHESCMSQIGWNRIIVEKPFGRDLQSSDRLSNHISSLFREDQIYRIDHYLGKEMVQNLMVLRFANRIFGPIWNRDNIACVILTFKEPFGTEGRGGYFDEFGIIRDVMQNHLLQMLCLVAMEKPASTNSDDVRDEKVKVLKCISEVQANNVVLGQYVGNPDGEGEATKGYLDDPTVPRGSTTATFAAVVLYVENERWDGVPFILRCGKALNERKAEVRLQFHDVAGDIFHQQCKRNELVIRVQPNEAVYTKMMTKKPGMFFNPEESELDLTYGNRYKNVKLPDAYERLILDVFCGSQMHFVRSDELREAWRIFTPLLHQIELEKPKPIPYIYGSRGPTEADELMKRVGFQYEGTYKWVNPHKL
Chain of Intestinal-type alkaline phosphatase (Mus musculus, UniProt P24822) (P24822 whole entry): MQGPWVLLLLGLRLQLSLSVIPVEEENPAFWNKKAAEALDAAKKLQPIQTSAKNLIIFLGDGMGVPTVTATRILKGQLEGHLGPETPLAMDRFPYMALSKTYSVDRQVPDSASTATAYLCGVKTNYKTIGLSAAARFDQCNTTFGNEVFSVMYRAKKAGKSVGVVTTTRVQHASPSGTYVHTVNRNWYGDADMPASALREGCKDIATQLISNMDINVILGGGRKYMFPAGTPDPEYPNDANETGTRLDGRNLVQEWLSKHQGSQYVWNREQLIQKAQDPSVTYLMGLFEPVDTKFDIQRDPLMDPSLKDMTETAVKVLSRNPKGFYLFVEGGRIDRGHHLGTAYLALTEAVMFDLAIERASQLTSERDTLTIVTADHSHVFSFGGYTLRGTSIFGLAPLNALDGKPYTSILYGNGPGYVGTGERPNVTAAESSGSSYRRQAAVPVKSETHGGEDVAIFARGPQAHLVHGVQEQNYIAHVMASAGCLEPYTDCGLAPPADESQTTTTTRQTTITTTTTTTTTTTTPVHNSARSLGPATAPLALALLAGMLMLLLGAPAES
Chain of Hexokinase (Q38C41 whole entry): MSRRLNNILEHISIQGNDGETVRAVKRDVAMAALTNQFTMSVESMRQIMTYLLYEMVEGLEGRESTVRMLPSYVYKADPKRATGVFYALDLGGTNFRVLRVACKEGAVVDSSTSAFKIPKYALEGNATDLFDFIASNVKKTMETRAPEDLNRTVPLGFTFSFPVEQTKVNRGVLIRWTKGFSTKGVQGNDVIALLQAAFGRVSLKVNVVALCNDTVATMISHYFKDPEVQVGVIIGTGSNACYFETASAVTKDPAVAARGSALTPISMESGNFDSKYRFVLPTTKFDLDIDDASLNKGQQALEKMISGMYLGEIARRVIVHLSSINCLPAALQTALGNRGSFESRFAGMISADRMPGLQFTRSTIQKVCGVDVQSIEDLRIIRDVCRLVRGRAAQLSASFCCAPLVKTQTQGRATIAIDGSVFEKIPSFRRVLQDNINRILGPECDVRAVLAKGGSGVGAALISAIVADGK
Chain of Dual specificity protein phosphatase 3 (P51452 whole entry): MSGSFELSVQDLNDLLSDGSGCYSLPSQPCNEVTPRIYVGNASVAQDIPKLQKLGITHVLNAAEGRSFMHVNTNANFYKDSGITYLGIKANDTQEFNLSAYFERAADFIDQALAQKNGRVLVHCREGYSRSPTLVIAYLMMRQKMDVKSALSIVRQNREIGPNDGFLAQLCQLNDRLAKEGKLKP
Chain of NACHT, LRR and PYD domains-containing protein 1 (Q9C000 1-1212 limits assumed): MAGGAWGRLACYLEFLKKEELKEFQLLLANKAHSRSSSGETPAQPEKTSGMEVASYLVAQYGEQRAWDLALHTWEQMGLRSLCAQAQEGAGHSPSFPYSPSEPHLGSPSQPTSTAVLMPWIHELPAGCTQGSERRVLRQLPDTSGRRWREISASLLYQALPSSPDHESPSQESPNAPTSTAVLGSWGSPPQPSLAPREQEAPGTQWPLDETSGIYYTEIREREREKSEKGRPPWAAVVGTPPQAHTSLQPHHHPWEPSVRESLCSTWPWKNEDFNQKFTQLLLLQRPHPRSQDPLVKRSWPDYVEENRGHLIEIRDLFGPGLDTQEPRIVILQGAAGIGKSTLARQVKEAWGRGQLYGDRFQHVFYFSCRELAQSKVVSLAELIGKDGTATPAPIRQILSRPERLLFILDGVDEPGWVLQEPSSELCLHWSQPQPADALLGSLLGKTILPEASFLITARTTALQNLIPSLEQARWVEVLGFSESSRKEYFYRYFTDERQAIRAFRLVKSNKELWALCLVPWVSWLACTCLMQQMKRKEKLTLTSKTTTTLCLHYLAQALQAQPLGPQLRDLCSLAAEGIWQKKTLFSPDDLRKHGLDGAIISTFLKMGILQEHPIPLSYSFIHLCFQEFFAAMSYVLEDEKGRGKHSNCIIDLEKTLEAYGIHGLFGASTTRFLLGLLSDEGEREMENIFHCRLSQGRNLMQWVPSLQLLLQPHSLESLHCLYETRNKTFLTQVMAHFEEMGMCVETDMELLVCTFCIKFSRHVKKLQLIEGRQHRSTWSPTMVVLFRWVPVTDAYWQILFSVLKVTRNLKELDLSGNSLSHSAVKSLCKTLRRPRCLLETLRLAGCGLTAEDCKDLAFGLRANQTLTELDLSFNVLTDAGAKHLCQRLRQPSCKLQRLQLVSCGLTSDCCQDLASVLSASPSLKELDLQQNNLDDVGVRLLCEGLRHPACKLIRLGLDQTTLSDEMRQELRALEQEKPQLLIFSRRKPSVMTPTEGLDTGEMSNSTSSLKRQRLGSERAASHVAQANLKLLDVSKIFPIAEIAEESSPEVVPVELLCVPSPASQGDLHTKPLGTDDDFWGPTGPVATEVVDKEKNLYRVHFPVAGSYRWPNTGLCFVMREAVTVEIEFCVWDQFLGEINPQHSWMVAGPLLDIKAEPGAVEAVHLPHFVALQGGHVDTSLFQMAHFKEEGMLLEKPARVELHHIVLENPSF
Chain of NACHT, LRR and PYD domains-containing protein 1 (Q9C000 1213-1473 limits assumed): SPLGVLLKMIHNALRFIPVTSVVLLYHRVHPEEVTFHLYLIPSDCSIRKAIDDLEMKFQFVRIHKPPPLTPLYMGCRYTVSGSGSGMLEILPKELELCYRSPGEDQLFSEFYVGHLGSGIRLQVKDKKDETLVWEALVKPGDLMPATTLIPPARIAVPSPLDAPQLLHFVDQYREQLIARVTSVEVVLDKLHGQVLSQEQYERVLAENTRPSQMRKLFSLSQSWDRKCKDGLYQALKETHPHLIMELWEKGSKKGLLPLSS

EC50 [1]: > 100 µM (not active)
IC50 [2]: 50 µM (active)
EC50 [3]: 6.41 µM (active)
EC50 [4]: 7.62 µM (active)
EC50 [5]: 10.2 µM (active)
Structure (SMILES): CC(C)C(=O)NC(=S)Nc1ccccc1C(=O)Nc1ccccc1

Structure (SMILES): O=C(Cn1sc2ccccc2c1=O)Nc1ccccc1
IC50 [6]: 6.69 µM (active)
IC50 [7]: 12.7 µM (active)
IC50 [8]: 73.1 µM (active)

Structure (SMILES): COc1ccc(C2=C/C(=C/c3cccnc3)C(=O)O2)cc1OC
IC50 [9]: > 100 µM (inactive)
IC50 [10]: > 100 µM (inactive)
EC50 [11]: 3.91 µM (active)

Structure (SMILES): COc1cc(C(=S)NCc2cccc(F)c2)ccc1O
IC50 [12]: 23.4 µM (active)
IC50 [13]: 32.8 µM (active)

EC50 [14]: < 0.5 µM (active)
Structure (SMILES): CCN(CC)c1ccc2nc3c4ccccc4c(=O)cc-3oc2c1 [NILE RED]
